In ChEMBL document CHEMBL3868595, “Plazomicin is effective in a non-human primate pneumonic plague model” (Bioorg Med Chem, 2016):

What was measured:
[1] = AUC (0 to 24 hrs) in African green monkey blood at 25 mg/kg administered as iv infusion twice daily for 7 consecutive days measured on day 7 by LC-MS/MS analysis; type: ADME, organism-based; parameters: time < 24 hr, dose 25 mg/kg, route intravenous; details: chlorocebus aethiops
[2] = Elimination half life in African green monkey blood at 35 mg/kg administered as iv infusion twice daily for 7 consecutive days measured on day 7 by LC-MS/MS analysis; type: ADME, organism-based; details: chlorocebus aethiops, read-out: beta t1/2 (converted)
Yersinia pestis [3] = test: Antibacterial activity against Yersinia pestis Colorado 92 infected in African green monkey assessed as survival of monkey at 12.5 mg/kg, iv administered within 6 hrs post onset of sustained fever as 30 mins infusion for 5 days; type: functional; details: CO92, iv
Yersinia pestis [4] = test: (§1) Antibacterial activity against Yersinia pestis Colorado 92 infected in African green monkey B6873 model assessed as bacterial burden in spleen at 12.5 mg/kg, iv administered within 6 hrs post onset of sustained fever as 30 mins infusion for 5 days (reference value: 1.6 10^9CFU/g); type: functional, organism-based; details: CO92
Yersinia pestis [5] = test: Antibacterial activity against Yersinia pestis Colorado 92 infected in African green monkey B6872 model assessed as bacterial burden in spleen at 25 mg/kg, iv administered within 6 hrs post onset of sustained fever as 30 mins infusion for 5 days (reference value: 1.6 10^9CFU/g); type: functional, organism-based; details: CO92
Yersinia pestis [6] = test: Antibacterial activity against Yersinia pestis Colorado 92 infected in African green monkey B6783 model assessed as bacterial burden in spleen at 12.5 mg/kg, iv administered within 6 hrs post onset of sustained fever as 30 mins infusion for 5 days (reference value: 1.6 10^9CFU/g); type: functional, CO92
Yersinia pestis [7] = test: Antibacterial activity against Yersinia pestis Colorado 92 infected in African green monkey B6436 model assessed as bacterial burden in liver at 25 mg/kg, iv administered within 6 hrs post onset of sustained fever as 30 mins infusion for 5 days (reference value: 5.2 10^8CFU/g); type: functional, organism-based; details: CO92
Yersinia pestis [8] = test: Antibacterial activity against Yersinia pestis Colorado 92 infected in African green monkey B6106 model assessed as bacterial burden in liver at 25 mg/kg, iv administered within 6 hrs post onset of sustained fever as 30 mins infusion for 5 days (reference value: 5.2 10^8CFU/g); type: functional, CO92
Yersinia pestis [9] = test: Antibacterial activity against Yersinia pestis Colorado 92 infected in African green monkey B6872 model assessed as bacterial burden in liver at 25 mg/kg, iv administered within 6 hrs post onset of sustained fever as 30 mins infusion for 5 days (reference value: 5.2 10^8CFU/g); type: functional, organism-based; details: CO92
Yersinia pestis [10] = test: Antibacterial activity against Yersinia pestis Colorado 92 infected in African green monkey B6861 model assessed as bacterial burden in liver at 6.25 mg/kg, iv administered within 6 hrs post onset of sustained fever as 30 mins infusion for 5 days (reference value: 5.2 10^8CFU/g); type: functional, CO92
Yersinia pestis [11] = test: Antibacterial activity against Yersinia pestis Colorado 92 infected in African green monkey B6960 model assessed as bacterial burden in liver at 6.25 mg/kg, iv administered within 6 hrs post onset of sustained fever as 30 mins infusion for 5 days (reference value: 5.2 10^8CFU/g); type: functional, CO92
Yersinia pestis [12] = test: Antibacterial activity against Yersinia pestis Colorado 92 infected in African green monkey B6872 model assessed as bacterial burden in kidney at 25 mg/kg, iv administered within 6 hrs post onset of sustained fever as 30 mins infusion for 5 days (reference value: 7.1 10^7CFU/g); type: functional, organism-based; details: CO92
Yersinia pestis [13] = test: as §1, with “C2083” for “B6873”, “tracheobronchial lymph nodes” for “spleen”, “7.7” for “1.6”; type: functional, CO92, Lymph node
Yersinia pestis [14] = test: Antibacterial activity against Yersinia pestis Colorado 92 infected in African green monkey B6861 model assessed as bacterial burden in brain at 6.25 mg/kg, iv administered within 6 hrs post onset of sustained fever as 30 mins infusion for 5 days (reference value: 1.9 10^6CFU/g); type: functional, CO92
Yersinia pestis [15] = test: Antibacterial activity against Yersinia pestis Colorado 92 infected in African green monkey B6872 model assessed as bacterial burden in blood at 25 mg/kg, iv administered within 6 hrs post onset of sustained fever as 30 mins infusion for 5 days (reference value: 1.2 10^7CFU/ml); type: functional, organism-based; details: CO92
Yersinia pestis [16] = test: Antibacterial activity against Yersinia pestis Colorado 92 infected in African green monkey B6889 model assessed as bacterial burden in blood at 6.25 mg/kg, iv administered within 6 hrs post onset of sustained fever as 30 mins infusion for 5 days (reference value: 1.2 10^7CFU/ml); type: functional, CO92
African green monkey [17] = test: Toxicity in African green monkey 7337 model infected with Yersinia pestis Colorado 92 assessed as blood urea nitrogen level at 25 mg/kg, iv administered within 6 hrs post onset of sustained fever as 30 mins infusion for 10 days (reference value: 15 mg/dl); type: organism-based; details: chlorocebus sabaeus, in vivo
African green monkey [18] = test: Toxicity in African green monkey B6140 model infected with Yersinia pestis Colorado 92 assessed as serum creatinine level at 25 mg/kg, iv administered within 6 hrs post onset of sustained fever as 30 mins infusion for 10 days (reference value: 0.8 mg/dl); type: organism-based; details: chlorocebus sabaeus, in vivo
African green monkey [19] = test: Toxicity in African green monkey B6428 model infected with Yersinia pestis Colorado 92 assessed as serum creatinine level at 25 mg/kg, iv administered within 6 hrs post onset of sustained fever as 30 mins infusion for 10 days (reference value: 0.8 mg/dl); type: organism-based; details: chlorocebus sabaeus, in vivo
African green monkey [20] = test: Toxicity in African green monkey 7929 model infected with Yersinia pestis Colorado 92 assessed as serum creatinine level at 25 mg/kg, iv administered within 6 hrs post onset of sustained fever as 30 mins infusion for 10 days (reference value: 1 mg/dl); type: organism-based; details: chlorocebus sabaeus, in vivo
African green monkey [21] = test: Toxicity in African green monkey 7929 model infected with Yersinia pestis Colorado 92 assessed as serum gamma glutamyl-transferase level at 25 mg/kg, iv administered within 6 hrs post onset of sustained fever as 30 mins infusion for 10 days (reference value: 44 IU/L); type: organism-based; details: chlorocebus sabaeus, in vivo
African green monkey [22] = test: Toxicity in African green monkey B6408 model infected with Yersinia pestis Colorado 92 assessed as serum alanine aminotransferase level at 25 mg/kg, iv administered within 6 hrs post onset of sustained fever as 30 mins infusion for 10 days (reference value: 109 IU/L); type: organism-based; details: chlorocebus sabaeus, in vivo
African green monkey [23] = test: Toxicity in African green monkey B6428 model infected with Yersinia pestis Colorado 92 assessed as serum alanine aminotransferase level at 25 mg/kg, iv administered within 6 hrs post onset of sustained fever as 30 mins infusion for 10 days (reference value: 83 IU/L); type: organism-based; details: chlorocebus sabaeus, in vivo
African green monkey [24] = test: Toxicity in African green monkey 8067 model infected with Yersinia pestis Colorado 92 assessed as serum alanine aminotransferase level at 25 mg/kg, iv administered within 6 hrs post onset of sustained fever as 30 mins infusion for 10 days (reference value: 45 IU/L); type: organism-based; details: chlorocebus sabaeus, in vivo
African green monkey [25] = test: Toxicity in African green monkey 7653 model infected with Yersinia pestis Colorado 92 assessed as serum lactate dehydrogenase level at 25 mg/kg, iv administered within 6 hrs post onset of sustained fever as 30 mins infusion for 10 days (reference value: 319 IU/L); type: organism-based; details: chlorocebus sabaeus, in vivo
[26] = Toxicity in African green monkey B6408 model infected with Yersinia pestis Colorado 92 assessed as total white blood cell count at 25 mg/kg, iv administered within 6 hrs post onset of sustained fever as 30 mins infusion for 10 days (reference value: 6.9 10^3/microL); type: organism-based; details: chlorocebus aethiops, in vivo

For CN[C@@H]1[C@@H](O)[C@@H](O[C@@H]2[C@@H](O)[C@H](O[C@H]3OC(CNCCO)=CC[C@H]3N)[C@@H](N)C[C@H]2NC(=O)[C@@H](O)CCN)OC[C@]1(C)O [PLAZOMICIN], the AUC at 24 h [1] was 208 µg·h/mL, the half-life [2] was 1.7 h and the survival at 12.5 mg/kg (Yersinia pestis [3]) was 33%. For the same molecule, the Activity (Yersinia pestis [4]) was “Below limit of detection”, the Activity (Yersinia pestis [5]) was “Below limit of detection” and the Activity (Yersinia pestis [6]) was 10 CFU/g. For the same molecule, the Activity (Yersinia pestis [7]) was “Below limit of detection”, the Activity (Yersinia pestis [8]) was 95 CFU/g and the Activity (Yersinia pestis [9]) was “Below limit of detection”. The Activity (Yersinia pestis [10]) was 16 CFU/g, the Activity (Yersinia pestis [11]) was 38 CFU/g and the Activity (Yersinia pestis [12]) was “Below limit of detection”. The Activity (Yersinia pestis [13]) was 8 ×10⁹ CFU/g, the Activity (Yersinia pestis [14]) was 12 CFU/g and the Activity (Yersinia pestis [15]) was “Below limit of detection”. It also gave an Activity (Yersinia pestis [16]) of 93 CFU/ml, an Activity (African green monkey [17]) of 18 mg/dL and an Activity (African green monkey [18]) of 0.7 mg/dL. For the same molecule, the Activity (African green monkey [19]) was 0.6 mg/dL, the Activity (African green monkey [20]) was 0.9 mg/dL and the Activity (African green monkey [21]) was 16 IU/L. It also gave an Activity (African green monkey [22]) of 94 IU/L, an Activity (African green monkey [23]) of 60 IU/L and an Activity (African green monkey [24]) of 50 IU/L. The Activity (African green monkey [25]) was 426 IU/L and the Activity [26] was 5.5 ×10³ /uL.
